Literature values as cited in US11298425B2, “Delivery of a chemotherapy agent across the blood-brain barrier” (ROWLESBIOMED, LLC, priority 2018, dated 2022).
Where two headings read alike, the source gives them in different places.

How the values were obtained:
[1] = rats
[2] = pigs
[3] = mice
[4] = humans, measured in the tissues of human cadavers

| SMILES | brain-to-blood ratio [1] | brain-to-blood ratio [2] | brain-to-blood ratio [3] | brain-to-blood ratio [4] |
| --- | --- | --- | --- | --- |
| CCCCCc1cc(O)c2c(c1)OC(C)(C)[C@@H]1CCC(C)=C[C@@H]21 [THC, tetrahydrocannabinol] | 2.0 | 2.6 | 1.6 | 3.0 |
| CCCc1cc(O)c2c(c1)OC(C)(C)[C@@H]1CCC(C)=C[C@@H]21 [THCV, tetrahydrocannabivarin] | – | – | even higher than THC | – |
